Test results: patent publication US20100076015A1, “Aminopyridine Derivatives” (VANTIA LIMITED, priority 2008, published 2010)

What was measured:
Format in all cases: biochemical
Human KLK1 = target: T1, Human KLK1 (Homo sapiens, UniProt P06870); experiment: Determination of the IC50 for KLK1 (fluorogenic substrate H-DVal-Leu-Arg-AFC); conditions: 37° C.
T1 construct: purchased Callbiochem (Calbiochem)
Outline: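 IC50 values reflect residual human KLK1 activity, read as initial rate from optical absorbance change at 410 nm. Incubations ran at 37° C with H-DVal-Leu-Arg-AFC as substrate across a compound concentration series.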

trypsin = experiment: Enzyme selectivity: trypsin (chromogenic substrate S-2222); conditions: human enzyme, chromogenic substrate S-2222, 37° C.
Method: (§1) Determination of Enzyme Selectivity
(§2) Selected compounds were further screened for inhibitory activity against other trypsin-like serine proteases using the appropriate enzyme and chromogenic substrate (Chromogenix AB). The activity against the following human enzymes was tested (substrate in brackets):—plasma kallikrein (S-2302), thrombin (S-2238), plasmin (S-2390) and trypsin (S-2222). The enzyme was incubated at 37° C. with the chromogenic substrate. Residual enzyme activity (initial rate of reaction) was determined by measuring the change in optical absorbance at 405 nm.

thrombin = thrombin (Homo sapiens, UniProt P00734); experiment: Enzyme selectivity: thrombin (chromogenic substrate S-2238); conditions: chromogenic substrate S-2238, 37° C.
Method: as §1, §2

plasmin = plasmin (Homo sapiens, UniProt P00747); experiment: Enzyme selectivity: plasmin (chromogenic substrate S-2390); conditions: chromogenic substrate S-2390, 37° C.
Method: as §1, §2

plasma kallikrein = plasma kallikrein (Homo sapiens, UniProt P03952); experiment: Enzyme selectivity: plasma kallikrein (chromogenic substrate S-2302); conditions: chromogenic substrate S-2302, 37° C.
Method: as §1, §2

T1 sequence (P06870 25-262): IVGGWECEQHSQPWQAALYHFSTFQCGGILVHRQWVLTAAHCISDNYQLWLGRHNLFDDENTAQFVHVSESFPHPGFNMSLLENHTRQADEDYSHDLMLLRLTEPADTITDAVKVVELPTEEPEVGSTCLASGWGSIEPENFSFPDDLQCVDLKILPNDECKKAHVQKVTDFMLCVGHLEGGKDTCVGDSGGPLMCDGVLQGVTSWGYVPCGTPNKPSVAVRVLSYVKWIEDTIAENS
Chain of plasma kallikrein (P03952 20-638): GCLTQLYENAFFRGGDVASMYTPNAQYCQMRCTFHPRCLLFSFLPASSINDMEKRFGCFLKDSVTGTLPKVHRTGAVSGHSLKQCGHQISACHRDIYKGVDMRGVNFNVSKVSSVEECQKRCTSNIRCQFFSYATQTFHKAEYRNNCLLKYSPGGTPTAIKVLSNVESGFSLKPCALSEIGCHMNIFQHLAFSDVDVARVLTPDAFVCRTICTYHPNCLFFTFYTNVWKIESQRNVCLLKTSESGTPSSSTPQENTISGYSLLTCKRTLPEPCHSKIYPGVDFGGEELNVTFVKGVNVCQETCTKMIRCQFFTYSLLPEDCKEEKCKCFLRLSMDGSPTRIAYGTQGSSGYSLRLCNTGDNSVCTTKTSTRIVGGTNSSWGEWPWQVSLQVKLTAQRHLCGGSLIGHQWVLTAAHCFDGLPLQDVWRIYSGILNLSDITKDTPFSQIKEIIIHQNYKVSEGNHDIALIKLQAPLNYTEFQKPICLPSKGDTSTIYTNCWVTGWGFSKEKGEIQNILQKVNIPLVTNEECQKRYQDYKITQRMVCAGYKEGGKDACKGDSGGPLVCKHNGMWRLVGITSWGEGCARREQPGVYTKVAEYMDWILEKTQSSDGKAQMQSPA
Chain of plasmin (P00747 581-810 limits assumed): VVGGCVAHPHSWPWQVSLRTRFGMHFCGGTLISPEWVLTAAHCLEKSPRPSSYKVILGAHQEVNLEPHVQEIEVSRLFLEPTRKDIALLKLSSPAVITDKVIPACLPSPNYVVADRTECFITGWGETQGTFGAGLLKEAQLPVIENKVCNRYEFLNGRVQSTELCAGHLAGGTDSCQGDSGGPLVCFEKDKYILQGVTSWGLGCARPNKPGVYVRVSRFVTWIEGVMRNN
Chain of plasmin (P00747 97-580 partner limits assumed): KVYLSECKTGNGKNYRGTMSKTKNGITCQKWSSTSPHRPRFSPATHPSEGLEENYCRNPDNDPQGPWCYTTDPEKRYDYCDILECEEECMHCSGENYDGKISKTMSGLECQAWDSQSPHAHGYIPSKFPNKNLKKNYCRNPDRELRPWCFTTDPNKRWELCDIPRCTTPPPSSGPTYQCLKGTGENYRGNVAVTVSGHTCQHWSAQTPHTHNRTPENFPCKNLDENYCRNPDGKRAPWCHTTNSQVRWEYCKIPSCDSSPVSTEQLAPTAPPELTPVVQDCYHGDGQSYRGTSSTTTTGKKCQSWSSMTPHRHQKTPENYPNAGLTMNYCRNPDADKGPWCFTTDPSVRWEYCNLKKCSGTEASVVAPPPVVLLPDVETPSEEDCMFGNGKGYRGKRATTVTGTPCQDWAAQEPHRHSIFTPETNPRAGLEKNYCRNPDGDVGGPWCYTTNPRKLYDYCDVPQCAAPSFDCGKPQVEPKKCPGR

| Compound | IC50 (Human KLK1) [µM] | IC50 (trypsin) [µM] | IC50 (thrombin) [µM] | IC50 (plasmin) [µM] | IC50 (plasma kallikrein) [µM] |
| --- | --- | --- | --- | --- | --- |
| Nc1ccc(CNC(=O)[C@H](Cc2ccc(Cl)c(Cl)c2)NC(=O)[C@H]2CCCN2)cn1 [Example 4, (R)-Pyrrolidine-2-carboxylic acid [(S)-1-[(6-amino-pyridin-3-ylmethyl)-carbamoyl]-2-(3,4-dichloro-phenyl)-ethyl]-amide] | – | > 10 | > 10 | > 10 | > 10 |
| CCC(C)[C@@H](N)C(=O)N[C@@H](Cc1ccccc1C(F)(F)F)C(=O)NCc1ccc(N)nc1 (stereo partly drawn) [Example 25, (R)-2-Amino-3-methyl-pentanoic acid [(S)-1-[(6-amino-pyridin-3-ylmethyl)-carbamoyl]-2-(2-trifluoromethyl-phenyl)-ethyl]-amide] | 0.0098 | > 10 | > 10 | > 10 | > 10 |
| CCC(C)[C@@H](N)C(=O)N[C@@H](Cc1ccccc1)C(=O)NCc1ccc(N)nc1 (stereo partly drawn) [Example 26, (R)-2-Amino-3-methyl-pentanoic acid {(S)-1-[(6-amino-pyridin-3-ylmethyl)-carbamoyl]-2-phenyl-ethyl}-amide] | 0.0205 | > 10 | > 10 | > 10 | > 10 |
| CCC(C)[C@@H](N)C(=O)N[C@@H](Cc1cccc(F)c1)C(=O)NCc1ccc(N)nc1 (stereo partly drawn) [Example 29, (R)-2-Amino-3-methyl-pentanoic acid [(S)-1-[(6-amino-pyridin-3-ylmethyl)-carbamoyl]-2-(3-fluoro-phenyl)-ethyl]-amide] | 0.0102 | > 10 | > 10 | > 10 | > 10 |
| CC(C)C[C@H](NC(=O)[C@H](C)N(C)C(C)C)C(=O)NCc1ccc(N)nc1 [Example 427, (S)-2-[(S)-2-(Isopropyl-methyl-amino)-propionylamino]-4-methyl-pentanoic acid (6-amino-pyridin-3-ylmethyl)-amide] | 0.106 | – | – | – | – |
| CCN(CC)CC(=O)N[C@@H](Cc1ccc(F)cc1)C(=O)NCc1ccc(N)nc1C [Example 428, (S)—N-(6-Amino-2-methyl-pyridin-3-ylmethyl)-2-(2-diethylamino-acetylamino)-3-(4-fluoro-phenyl)-propionamide] | 0.0099 | – | – | – | – |
| Cc1nc(N)ccc1CNC(=O)[C@H](Cc1ccc(F)c(F)c1)NC(=O)CN1CCCCC1 [Example 430, (S)—N-(6-Amino-2-methyl-pyridin-3-ylmethyl)-3-(3,4-difluoro-phenyl)-2-(2-piperidin-1-yl-acetylamino)-propionamide] | 0.0598 | – | – | – | – |
| Cc1nc(N)ccc1CNC(=O)[C@H](Cc1ccc(F)c(F)c1)NC(=O)[C@@H](C)N1CCCCC1 [Example 431, (R)—N-[(S)-1-[(6-Amino-2-methyl-pyridin-3-ylmethyl)-carbamoyl]-2-(3,4-difluoro-phenyl)-ethyl]-2-piperidin-1-yl-propionamide] | 0.0506 | – | – | – | – |
| Cc1nc(N)ccc1CNC(=O)[C@H](Cc1ccc(F)c(F)c1)NC(=O)[C@H](C)N1CCCCC1 [Example 432, (S)—N-[(S)-1-[(6-Amino-2-methyl-pyridin-3-ylmethyl)-carbamoyl]-2-(3,4-difluoro-phenyl)-ethyl]-2-piperidin-1-yl-propionamide] | 0.017 | – | – | – | – |
| CC(C)N(C)[C@@H](C)C(=O)N[C@@H](C(=O)NCc1ccc(N)nc1)C(C1CCCCC1)C1CCCCC1 [Example 433, (S)—N-{(R)-1-[(6-Amino-pyridin-3-ylmethyl)-carbamoyl]-2,2-dicyclohexyl-ethyl}-2-(isopropyl-methyl-amino)-propionamide] | 0.1 | – | – | – | – |
| (S)—N-{(R)-1-[(6-Amino-pyridin-3-ylmethyl)-carbamoyl]-2,2-dicyclohexyl-ethyl}-2-dimethylamino-propionamide [Example 434] | 0.0439 | – | – | – | – |

The remaining compounds from weak to strong by IC50 (Human KLK1), led by results:

| IC50 (Human KLK1) [µM] | IC50 (trypsin) [µM] | IC50 (thrombin) [µM] | IC50 (plasmin) [µM] | IC50 (plasma kallikrein) [µM] | Compound |
| --- | --- | --- | --- | --- | --- |
| 0.0098 | > 10 | > 10 | > 10 | > 10 | Nc1ccc(CNC(=O)[C@H](CC2CCCC3CCCCC32)NC(=O)[C@H](N)Cc2ccc(Cl)cc2)cn1 (stereo partly drawn) [Example 13, (R)-2-Amino-N-[(S)-1-[(6-amino-pyridin-3-ylmethyl)carbamoyl]-2-(decahydro-naphthalen-1-yl)-ethyl]-3-(4-chloro-phenyl)-propionamide] |
| 0.0054 | – | – | – | – | CCN(CC)C(C)C(=O)N(C)C(CC1CCCCC1)C(=O)NCc1ccc(N)nc1 [Example 438, S)—N-{(S)-1-[(6-Amino-pyridin-3-ylmethyl)-carbamoyl]-2-cyclohexyl-ethyl}-2-diethylamino-N-methyl-propionamide] |
| 0.005 | – | – | – | – | CC(C)N(C)[C@@H](C)C(=O)N[C@@H](C(=O)NCc1ccc(N)nc1)C(O)C1CCCCC1 (stereo partly drawn) [Example 435, (S)—N-{(R)-1-[(6-Amino-pyridin-3-ylmethyl)-carbamoyl]-2-cyclohexyl-2-hydroxy-ethyl}-2-(isopropyl-methyl-amino)-propionamide] |
| 0.0049 | > 10 | > 10 | > 10 | > 10 | CCC(C)[C@H](N)C(=O)N[C@@H](C(=O)NCc1ccc(N)nc1)C(C1CCCCC1)C1CCCCC1 (stereo partly drawn) [Example 11, (S)-2-Amino-3-methyl-pentanoic acid [(R)-1-[(6-amino-pyridin-3-ylmethyl)-carbamoyl]-2,2-dicyclohexyl-ethyl]-amide] |
| 0.0043 | > 10 | > 10 | > 10 | > 10 | CCC(C)[C@@H](N)C(=O)N[C@@H](CC1CCCCC1)C(=O)NCc1ccc(N)nc1 (stereo partly drawn) [Example 20, (R)-2-Amino-3-methyl-pentanoic acid {(S)-1-[(6-amino-pyridin-3-ylmethyl)-carbamoyl]-2-cyclohexyl-ethyl}-amide] |
| 0.0036 | – | – | – | – | CC(C1CCCCC1)[C@@H](NC(=O)[C@H](C)N(C)C(C)C)C(=O)NCc1ccc(N)nc1 (stereo partly drawn) [Example 436, (R)—N-(6-Amino-pyridin-3-ylmethyl)-3-cyclohexyl-2-[(S)-2-(isopropyl-methyl-amino)-propionylamino]-butyramide] |
| 0.0025 | > 10 | > 10 | > 10 | > 10 | CCC(C)[C@@H](N)C(=O)N[C@@H](Cc1cccc(C)c1)C(=O)NCc1ccc(N)nc1 (stereo partly drawn) [Example 27, (R)-2-Amino-3-methyl-pentanoic acid {(S)-1-[(6-amino-pyridin-3-ylmethyl)-carbamoyl]-2-m-tolyl-ethyl}-amide] |
| 0.0017 | – | – | – | – | Cc1nc(N)ccc1CNC(=O)[C@H](Cc1ccc(F)c(F)c1)NC(=O)CN1C(C)CCCC1C (stereo partly drawn) [Example 429, (S)—N-(6-Amino-2-methyl-pyridin-3-ylmethyl)-3-(3,4-difluoro-phenyl)-2-[2-(2,6-dimethyl-piperidin-1-yl)-acetylamino]-propionamide] |
| 0.0013 | > 10 | > 10 | > 10 | > 10 | CN1CCC[C@@H]1C(=O)N[C@@H](Cc1ccc(F)c(F)c1)C(=O)NCc1ccc(N)nc1 [Example 5, (R)-1-Methyl-pyrrolidine-2-carboxylic acid [(S)-1-[(6-amino-pyridin-3-ylmethyl)-carbamoyl]-2-(3,4-difluoro-phenyl)-ethyl]-amide] |
| 0.0011 | > 10 | > 10 | > 10 | > 10 | CCC(C)[C@@H](N)C(=O)N[C@@H](Cc1cccc(C(F)(F)F)c1)C(=O)NCc1ccc(N)nc1 (stereo partly drawn) [Example 30, (R)-2-Amino-3-methyl-pentanoic acid [(S)-1-[(6-amino-pyridin-3-ylmethyl)-carbamoyl]-2-(3-trifluoromethyl-phenyl)-ethyl]-amide] |
| 0.001 | > 10 | > 10 | > 10 | > 10 | CCC(C)[C@@H](N)C(=O)N[C@@H](CC1CCCC2CCCCC21)C(=O)NCc1ccc(N)nc1 (stereo partly drawn) [Example 2, (R)-2-Amino-3-methyl-pentanoic acid [(S)-1-[(6-amino-pyridin-3-ylmethyl)-carbamoyl]-2-(decahydro-naphthalen-1-yl)-ethyl]-amide] |
| 0.00096 | > 10 | > 10 | > 10 | > 10 | CCC(C)[C@@H](N)C(=O)N[C@@H](Cc1cccc2ccccc12)C(=O)NCc1ccc(N)nc1 (stereo partly drawn) [Example 1, (R)-2-Amino-3-methyl-pentanoic acid {(S)-1-[(6-amino-pyridin-3-ylmethyl)-carbamoyl]-2-naphthalen-1-yl-ethyl}-amide] |
| 0.00038 | – | – | – | – | (R)—N-[(S)-1-[(6-Amino-pyridin-3-ylmethyl)-carbamoyl]-2-(3,4-dichloro-phenyl)-ethyl]-3-methyl-2-methylamino-butyramide [Example 340] |
| 0.00029 | > 10 | > 10 | > 10 | > 10 | Nc1ccc(CNC(=O)[C@H](Cc2ccc(Cl)c(Cl)c2)NC(=O)[C@H](N)Cc2ccccc2)cn1 [Example 54, (R)-2-Amino-N-[(S)-1-[(6-amino-pyridin-3-ylmethyl)-carbamoyl]-2-(3,4-dichloro-phenyl)-ethyl]-3-phenyl-propionamide] |
| 0.00022 | > 10 | > 10 | > 10 | > 10 | CCC(C)[C@@H](NC)C(=O)N[C@@H](Cc1ccc(Cl)c(Cl)c1)C(=O)NCc1ccc(N)nc1 (stereo partly drawn) [Example 3, (R)-3-Methyl-2-methylamino-pentanoic acid [(S)-1-[(6-amino-pyridin-3-ylmethyl)-carbamoyl]-2-(3,4-dichloro-phenyl)-ethyl]-amide] |
